Laboratory results from the supplement of paper PMC11003180.

Key:
Test in all cases: drug sensitivity score (DSS) from 5-dose viability curve (DSS (area-based score, 0 = no response)); higher = more sensitive (stronger viability inhibition); extreme values may be limits of the assay
[1] = tested on: MDCK p60AmotL2-inducible + doxycycline (p60AmotL2 expressing); conditions: doxycycline: 10 ng/mL; 72 h
Summary of the method: (§1)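 Pre-spotted 384-well plates held 528 oncology drugs, each at five doses from 1 to 10,000 nM. Parental and doxycycline-inducible MDCK cells, exposed beforehand to 10 ng/mL doxycycline in the medium, were added at 2000 cells/well and incubated 72 h at 37 °C. Viability came from CellTiter-Glo luminescence normalized per plate to vehicle and positive controls, and the Breeze pipeline fitted dose-response curves to give drug sensitivity scores.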

[2] = tested on: MDCK wild-type + doxycycline; conditions: doxycycline: 10 ng/mL; 72 h
Summary of the method: as §1

[3] = tested on: MDCK wild-type - doxycycline; conditions: doxycycline: none; 72 h
Summary of the method: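 Parental MDCK cells without doxycycline were dispensed at 2000 cells/well onto pre-spotted 384-well plates. The plates held an oncology library of 528 drugs at five doses (1-10,000 nM) and were incubated 72 h at 37 °C. Viability was read as CellTiter-Glo luminescence and scaled per plate between vehicle and positive controls. Drug sensitivity scores came from dose-response curve fits in the Breeze pipeline.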

Compound	drug sensitivity score [1]	drug sensitivity score [2]	drug sensitivity score [3]
CC(=O)c1cc2c(o1)C(=O)c1ccccc1C2=O [Napabucasin]	18.1	18.5	18.3
CC1(COc2ccc3c(c2)ncn3-c2ccc3cccc(N4CCC(N)CC4)c3n2)COC1 [Crenolanib]	6.5	8.1	5.4
Oc1ccc2c(c1)CC[C@H](c1ccccc1)[C@@H]2c1ccc(OCCN2CCCC2)cc1 [Lasofoxifene]	0	0	0
CC1(C)CC[C@]2(NC(=O)C(C)(F)F)CC[C@]3(C)[C@H](C(=O)C=C4[C@@]5(C)C=C(C#N)C(=O)C(C)(C)[C@@H]5CC[C@]43C)[C@@H]2C1 [Omaveloxolone]	16.7	16.3	17
CCCCCCCCCCCCCCCCOP(=O)([O-])OCC[N+](C)(C)C [Miltefosine]	5.3	5.2	4.9
N#Cc1ccc2[nH]c(O)c(-c3ccc(CN4CCOCC4)cn3)c2c1 [AZD-1080]	0	0	0
COc1cc(C)[nH]c(=O)c1CNC(=O)c1c(C)n([C@H](C)C2CCOCC2)c2ccccc12 [CPI-360]	1.3	0.1	0
C=CC(=O)Nc1cccc(Nc2nc(Nc3ccc(N4CCN(C(C)=O)CC4)cc3OC)ncc2C(F)(F)F)c1 [Rociletinib]	10.4	6.7	6.9
CC1(C)NC(=O)N(c2ccc([N+](=O)[O-])c(C(F)(F)F)c2)C1=O [Nilutamide]	0	0	0
CC(=O)O[C@@]12CO[C@@H]1C[C@H](O)[C@@]1(C)C(=O)[C@H](O)C3=C(C)[C@@H](OC(=O)[C@H](O)[C@@H](NC(=O)OC(C)(C)C)c4ccccc4)C[C@@](O)([C@@H](OC(=O)c4ccccc4)[C@H]21)C3(C)C [Docetaxel]	27	23.2	19.3
COc1ccc(-c2nc(N3CCOCC3)c3sc(CN(C)c4ncc(C(=O)NO)cn4)cc3n2)cn1 [CUDC-907]	30.3	28.3	27.2
C=CC(=O)N1CCC(Oc2cc3c(Nc4ccc(Cl)c(Cl)c4F)ncnc3cc2OC)CC1 [Poziotinib]	27.9	14.3	9.2
COc1cc2c(cc1OCCCN1CCCC1)N=C(N)C21CCC1 [A-366]	0	0	0
CS(=O)(=O)c1ccc(C(=O)Nc2ccc(Cl)c(-c3ccccn3)c2)c(Cl)c1 [Vismodegib]	0	0	0
O=C(CCCCCCC(=O)Nc1ccccc1)NO [Vorinostat]	11.8	9.8	7.5
O=C(/C=C\n1cnc(-c2cc(C(F)(F)F)cc(C(F)(F)F)c2)n1)NNc1cnccn1 [Selinexor]	16.7	16.4	15.1
O=C1c2c(O)ccc(O)c2C(=O)c2c(NCCNCCO)ccc(NCCNCCO)c21 [Mitoxantrone]	15.5	8.9	7.1
CC(C)[C@H]1C(=O)N[C@@H](CCCNC(=N)N)C(=O)NCC(=O)N[C@@H](CC(=O)O)C(=O)N[C@H](Cc2ccccc2)C(=O)N1C [Cilengitide]	3.8	0	0.2

Compound	drug sensitivity score [1]	drug sensitivity score [2]	drug sensitivity score [3]
COc1ccccc1S(=O)(=O)Nc1ccc2c(c1)CN(C)C(=O)N2 [PFI-1]	5.3	2.4	0.3
COc1ccc(Cn2ccc3ccc(C(=O)NO)cc32)cc1	2.1	3.1	0
CN(C)c1cc2c(cc1Sc1nc3c(N)nccc3n1CCNCC(C)(C)C)OCO2 [CUDC-305]	18	17	17.7
Cn1cnc2c(F)c(Nc3ccc(Br)cc3F)c(C(=O)NOCCO)cc21 [Binimetinib]	5.3	0	0
Cn1c(=O)n(-c2ccc(C(C)(C)C#N)cc2)c2c3cc(-c4cnc5ccccc5c4)ccc3ncc21 [Dactolisib]	17.7	10.9	9.2
C[C@]1(O)C[C@@H](c2nc(-c3ccc4ccc(-c5ccccc5)nc4c3)c3c(N)nccn32)C1 [Linsitinib]	0	0	0
N#Cc1ccnc(N2C(=O)CC[C@H]2C(=O)N(c2cncc(F)c2)[C@H](C(=O)NC2CC(F)(F)C2)c2ccccc2Cl)c1 [Ivosidenib]	0	0	0
Cc1nc(NC(=O)N2CCC[C@H]2C(N)=O)sc1-c1ccnc(C(C)(C)C(F)(F)F)c1 [Alpelisib]	1.6	0	0.7
C=CC(=O)Nc1cccc(Oc2nc(Nc3ccc(N4CCN(C)CC4)cc3)nc3ccsc23)c1 [Olmutinib]	1.5	0	0
Nc1nc(Cl)nc2c1ncn2[C@H]1C[C@H](O)[C@@H](CO)O1 [Cladribine]	2.3	2.3	1.2
O=C(c1cc(Cc2n[nH]c(=O)c3ccccc23)ccc1F)N1CCN(C(=O)C2CC2)CC1 [Olaparib]	0.2	0	0
CCCCOc1nc(N)c2c(n1)N(Cc1cccc(CN3CCCC3)c1)CC(=O)N2 [Vesatolimod]	0	0	0
CO[C@@H]1[C@H](N(C)C(=O)c2ccccc2)C[C@H]2O[C@]1(C)n1c3ccccc3c3c4c(c5c6ccccc6n2c5c31)C(=O)NC4 [Midostaurin]	13.9	11.5	13.2
O=C(/C=C/c1cccc(S(=O)(=O)Nc2ccccc2)c1)NO [Belinostat]	19	15.8	14
CC[C@]1(O)C[C@@H]2CN(CCc3c([nH]c4ccccc34)[C@@](C(=O)OC)(c3cc4c(cc3OC)N(C)[C@H]3[C@@](O)(C(=O)OC)[C@H](OC(C)=O)[C@]5(CC)C=CCN6CC[C@]43[C@@H]65)C2)C1 [Vinblastine]	25.2	24	25.6
CC(C)N(C[C@H]1O[C@@H](n2cnc3c(N)ncnc32)[C@H](O)[C@@H]1O)[C@H]1C[C@@H](CCc2nc3cc(C(C)(C)C)ccc3[nH]2)C1 [Pinometostat]	0	0	0
CCNC(=O)CCC/C=C\C[C@@H]1[C@@H](/C=C/[C@@H](O)CCc2ccccc2)[C@H](O)C[C@@H]1O [Bimatoprost]	0	0	0
